Results taken from ChEMBL document CHEMBL1153748 (J Med Chem, 2010).

Assays:
[1] = target: T1, Peroxisome proliferator-activated receptor alpha (Homo sapiens, UniProt Q07869); test: Agonist activity at human PPARalpha ligand binding domain expressed in human 293T cells co-transfected with Gal4-DBD by luciferase transactivation assay; format: cell-based
T1 sequence (Q07869 whole entry): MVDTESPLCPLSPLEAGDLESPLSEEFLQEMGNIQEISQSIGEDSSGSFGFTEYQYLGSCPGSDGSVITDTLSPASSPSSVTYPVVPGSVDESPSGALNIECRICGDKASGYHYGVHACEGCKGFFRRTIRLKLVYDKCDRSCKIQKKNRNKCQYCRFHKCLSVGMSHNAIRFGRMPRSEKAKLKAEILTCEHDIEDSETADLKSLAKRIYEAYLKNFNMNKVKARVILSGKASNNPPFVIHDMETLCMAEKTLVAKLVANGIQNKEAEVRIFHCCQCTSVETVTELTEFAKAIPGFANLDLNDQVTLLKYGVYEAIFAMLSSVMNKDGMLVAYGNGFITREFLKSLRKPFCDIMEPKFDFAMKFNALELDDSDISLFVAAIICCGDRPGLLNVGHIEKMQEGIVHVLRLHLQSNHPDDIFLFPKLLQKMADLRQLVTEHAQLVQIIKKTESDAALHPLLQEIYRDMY

[2] = target: T2, Peroxisome proliferator-activated receptor gamma (Homo sapiens, UniProt P37231); format: cell-based, 293T
T2 sequence (P37231 whole entry): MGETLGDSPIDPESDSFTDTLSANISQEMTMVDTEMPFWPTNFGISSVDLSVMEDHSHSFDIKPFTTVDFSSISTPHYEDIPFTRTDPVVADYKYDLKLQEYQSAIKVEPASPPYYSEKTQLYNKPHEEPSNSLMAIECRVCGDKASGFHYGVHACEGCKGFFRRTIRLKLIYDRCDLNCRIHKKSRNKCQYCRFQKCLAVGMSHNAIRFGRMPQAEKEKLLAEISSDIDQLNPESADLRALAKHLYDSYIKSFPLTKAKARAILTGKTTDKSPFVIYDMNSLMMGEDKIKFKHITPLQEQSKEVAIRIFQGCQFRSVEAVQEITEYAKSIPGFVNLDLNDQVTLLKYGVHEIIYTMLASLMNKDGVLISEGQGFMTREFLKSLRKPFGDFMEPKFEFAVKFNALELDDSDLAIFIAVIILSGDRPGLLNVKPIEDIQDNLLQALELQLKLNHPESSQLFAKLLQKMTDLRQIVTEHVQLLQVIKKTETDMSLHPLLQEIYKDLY

[3] = target: T3, Peroxisome proliferator-activated receptor delta (Homo sapiens, UniProt Q03181)
T3 sequence (Q03181 whole entry): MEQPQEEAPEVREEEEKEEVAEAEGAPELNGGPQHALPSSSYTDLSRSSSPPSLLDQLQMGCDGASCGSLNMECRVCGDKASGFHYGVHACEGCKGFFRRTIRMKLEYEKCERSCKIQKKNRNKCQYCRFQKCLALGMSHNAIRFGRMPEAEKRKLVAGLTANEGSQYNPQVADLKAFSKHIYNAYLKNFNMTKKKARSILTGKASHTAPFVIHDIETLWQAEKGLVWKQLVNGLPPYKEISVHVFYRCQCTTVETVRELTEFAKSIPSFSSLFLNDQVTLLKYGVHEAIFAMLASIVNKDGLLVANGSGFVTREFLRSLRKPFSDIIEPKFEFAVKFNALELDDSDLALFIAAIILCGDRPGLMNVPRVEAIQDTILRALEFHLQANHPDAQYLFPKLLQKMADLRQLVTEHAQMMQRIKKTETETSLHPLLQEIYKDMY

SMILES | EC50 ([1]; read-out: EC50) | EC50 ([2]; read-out: EC50) | EC50 [3] | EC50 ([1]; 293t) | EC50 ([2]; 293t)
COc1ccc(-c2nc(COc3ccc(OCC(=O)O)cc3C)sc2-c2ccc(C(F)(F)F)cc2)cc1 | > 10 µM | > 10 µM | 2.26 µM |  | 
COc1ccc(-c2nc(COc3ccc(OCC(=O)O)c(C)c3)oc2-c2ccc(OC(F)(F)F)cc2)cc1 | > 10 µM | > 10 µM | 0.01 µM |  | 
COc1ccc(-c2nc(COc3ccc(OCC(=O)O)c(C)c3)oc2-c2cnc3ccccc3c2)cc1 | > 10 µM | > 10 µM | 0.11 µM |  | 
CCOc1ccc(-c2nc(COc3ccc(OCC(=O)O)c(C)c3)sc2-c2ccc(OC(F)(F)F)cc2)cc1 | > 10 µM | > 10 µM | 0.032 µM |  | 
COc1ccc(-c2nc(COc3ccc(OCC(=O)O)c(C)c3)sc2/C=C/c2ccccc2)cc1 | > 10 µM | > 10 µM | 0.11 µM |  | 
COc1ccc(-c2nc(COc3ccc(OCC(=O)O)c(C)c3)sc2-c2ccc(Cl)nc2)cc1 | > 10 µM | > 10 µM | 0.88 µM |  | 
COc1ccc(-c2nc(COc3ccc(OCC(=O)O)c(C)c3)sc2-c2ccc(C(C)(C)C)cc2)cc1 | > 10 µM | > 10 µM | 0.72 µM |  | 
Cc1cc(OCc2nc(-c3ccc(OCC(C)C)cc3)c(-c3ccc(OC(F)(F)F)cc3)s2)ccc1OCC(=O)O | > 10 µM | > 10 µM | 0.063 µM |  | 
Cc1cc(OCc2nc(-c3ccc(C(F)(F)F)cc3)cs2)ccc1OCC(=O)O | > 10 µM | > 10 µM | 1.39 µM |  | 
COc1ccc(-c2nc(COc3ccc(OCC(=O)O)c(C)c3)sc2-c2cccc(C(F)(F)F)c2)cc1 | > 10 µM | > 10 µM | 0.07 µM |  | 
COc1ccc(-c2nc(COc3ccc4c(CC(=O)O)cccc4c3)sc2-c2ccc(C(F)(F)F)cc2)cc1 | > 10 µM | > 10 µM | 0.74 µM |  | 
COc1ccc(-c2sc(COc3ccc(OCC(=O)O)c(C)c3)nc2C)cc1 | > 10 µM | > 10 µM | > 10 µM |  | 
COc1ccc(-c2nc(COc3ccc(OCC(=O)O)c(C)c3)sc2-c2ccc(OC(F)(F)F)cc2)cc1F | > 10 µM | > 10 µM | 0.056 µM |  | 
COc1ccc(-c2nc(COc3ccc(OCC(=O)O)c(C)c3)oc2-c2ccc(OC)cc2)cc1 | > 10 µM | > 10 µM | 0.12 µM |  | 
CCCc1ccc(-c2oc(COc3ccc(OCC(=O)O)c(C)c3)nc2-c2ccc(OC)cc2)cc1 | > 10 µM | > 10 µM | 0.01 µM |  | 
COc1ccc(-c2nc(COc3ccc(OCC(=O)O)c(C)c3)sc2-c2ccc(Cl)cc2)cc1 | > 10 µM | > 10 µM | 0.06 µM |  | 
COc1ccc(-c2nc(CSc3ccc(OCC(=O)O)c(C)c3)sc2-c2ccc(C(F)(F)F)cc2)cc1 | > 10 µM | > 10 µM | 0.23 µM |  | 
COc1ccc(-c2nc(COc3ccc(OCC(=O)O)c(C)c3)sc2-c2ccccc2)cc1 | > 10 µM | > 10 µM | 0.19 µM |  | 
Cc1cc(OCc2nc(-c3ccc4c(c3)OCCCO4)c(-c3ccc(OC(F)(F)F)cc3)s2)ccc1OCC(=O)O | > 10 µM | > 10 µM | 0.013 µM |  | 
COc1ccc(-c2nc(COc3ccc4oc(C(=O)O)cc4c3)sc2-c2ccc(C(F)(F)F)cc2)cc1 | > 10 µM | > 10 µM | > 10 µM |  | 
Cc1cc(OCc2nc(-c3ccccc3)c(-c3ccccc3)s2)ccc1OCC(=O)O | > 10 µM | > 10 µM | > 10 µM |  | 
CCC(C)Oc1ccc(-c2nc(COc3ccc(OCC(=O)O)c(C)c3)sc2-c2ccc(OC(F)(F)F)cc2)cc1 (configuration not stated) | > 10 µM | > 10 µM | 0.018 µM |  | 

SMILES | EC50 ([1]; read-out: EC50) | EC50 ([2]; read-out: EC50) | EC50 [3] | EC50 ([1]; 293t) | EC50 ([2]; 293t)
Cc1cc(OCc2nc(-c3ccc(Cl)cc3)c(-c3ccccc3)s2)ccc1OCC(=O)O | > 10 µM | > 10 µM | 5.9 µM |  | 
COc1ccc(-c2nc(COc3ccc(OCC(=O)O)c(C)c3)sc2-c2cccc3ccccc23)cc1 | > 10 µM | > 10 µM | > 10 µM |  | 
CCCOc1ccc(-c2nc(COc3ccc(OCC(=O)O)c(C)c3)sc2-c2ccc(OC(F)(F)F)cc2)cc1 | > 10 µM | > 10 µM | 0.035 µM |  | 
COc1ccc(-c2nc(COc3cccc(OCC(=O)O)c3)sc2-c2ccc(C(F)(F)F)cc2)cc1 | > 10 µM | > 10 µM | > 10 µM |  | 
COc1ccc(-c2nc(COc3ccc(OCC(=O)O)c(C)c3)sc2-c2cnc3ccccc3c2)cc1 | > 10 µM | > 10 µM | 0.08 µM |  | 
COc1ccc(-c2nc(CSc3ccc(OCC(=O)O)c(C)c3)sc2-c2ccc(OC)cc2)cc1 | > 10 µM | > 10 µM | 0.47 µM |  | 
Cc1cc(OCc2nc(-c3ccc(NS(C)(=O)=O)cc3)c(-c3ccc(OC(F)(F)F)cc3)s2)ccc1OCC(=O)O | > 10 µM | > 10 µM | 0.775 µM |  | 
Cc1cc(OCc2nc(-c3ccc(C(F)(F)F)cc3)c(-c3ccc(C(F)(F)F)cc3)s2)ccc1OCC(=O)O | > 10 µM | > 10 µM | 0.35 µM |  | 
Cc1cc(OCc2nc(-c3ccc(C(F)(F)F)cc3)c(C)s2)ccc1OCC(=O)O | > 10 µM | > 10 µM | 2.4 µM |  | 
COc1ccc(-c2nc(COc3ccc(OCC(=O)O)c(C)c3)sc2-c2ccc3ccccc3c2)cc1 | > 10 µM | > 10 µM | 0.02 µM |  | 
Cc1cc(OCc2nc(-c3cncnc3)c(-c3ccc(OC(F)(F)F)cc3)s2)ccc1OCC(=O)O | > 10 µM | > 10 µM | 0.059 µM |  | 
COc1ccc(-c2nc(COc3ccc(CC(=O)O)cc3Cl)sc2-c2ccc(C(F)(F)F)cc2)cc1 | > 10 µM | > 10 µM | 0.48 µM |  | 
COc1ccc(-c2nc(Sc3cccc(C(C)C(=O)O)c3)sc2-c2ccc(OC)cc2)cc1 (configuration not stated) | 0.3 µM | 2.3 µM | 3.2 µM |  | 
COc1ccc(-c2nc(COc3ccc(OCC(=O)O)c(C)c3)oc2-c2ccc(Cl)c(Cl)c2)cc1 | > 10 µM | > 10 µM | 0.07 µM |  | 
COc1ccc(-c2nc(Sc3ccc(OCC(=O)O)c(C)c3)sc2-c2ccc(OC)cc2)cc1 | > 10 µM | > 10 µM | 1.41 µM |  | 
Cc1cc(CN(CC(=O)Nc2ccc(Cl)cc2Cl)C2CCCCC2)ccc1OCC(=O)O |  |  | 0.003 µM | Not Active | Not Active
Cc1cc(OCc2nc(-c3cccnc3)c(-c3ccc(OC(F)(F)F)cc3)s2)ccc1OCC(=O)O | > 10 µM | > 10 µM | 0.068 µM |  | 
Cc1cc(OCc2nc(-c3ccc4c(c3)OCCO4)c(-c3ccc(OC(F)(F)F)cc3)s2)ccc1OCC(=O)O | > 10 µM | > 10 µM | 0.017 µM |  | 
COc1ccc(-c2nc(COc3ccc(CC(=O)O)cc3)sc2-c2ccc(C(F)(F)F)cc2)cc1 | > 10 µM | > 10 µM | 1.3 µM |  | 
Cc1cc(OCc2nc(-c3ccc(Cl)cc3)cs2)ccc1OCC(=O)O | > 10 µM | > 10 µM | 4.71 µM |  | 
COc1ncc(-c2nc(COc3ccc(OCC(=O)O)c(C)c3)sc2-c2ccc(OC(F)(F)F)cc2)cn1 | > 10 µM | > 10 µM | 0.034 µM |  | 
Cc1ccc(-c2sc(COc3ccc(OCC(=O)O)c(C)c3)nc2-c2cccnc2)cc1 | > 10 µM | > 10 µM | 0.19 µM |  | 
